According to the supplement of paper PMC10307832:

Key:
Assay in all cases: relative viability (nuclei count vs DMSO), 5 days (fraction); higher = more cells survive
Sulindac + Navitoclax = compound: CC1=C(CC(=O)O)c2cc(F)ccc2/C1=C\c1ccc([S+](C)[O-])cc1 [Sulindac] + CC1(C)CCC(c2ccc(Cl)cc2)=C(CN2CCN(c3ccc(C(=O)NS(=O)(=O)c4ccc(N[C@H](CCN5CCOCC5)CSc5ccccc5)c(S(=O)(=O)C(F)(F)F)c4)cc3)CC2)C1 [Navitoclax] (partner 0.5 µM)
Procedure, shortened: (§1)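 Relative viability is defined as nuclei in treated wells over nuclei in vehicle wells. Duplicate plates were run and medians reported. Lung cancer cell lines in 1536-well plates were dosed by pin tool one day after seeding, with one drug or with a fixed anchor-drug dose plus five library-drug doses (not always all listed) in √10 steps, and nuclei were counted after 5 days.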

Sulindac + Foretinib = compound: CC1=C(CC(=O)O)c2cc(F)ccc2/C1=C\c1ccc([S+](C)[O-])cc1 [Sulindac] + COc1cc2c(Oc3ccc(NC(=O)C4(C(=O)Nc5ccc(F)cc5)CC4)cc3F)ccnc2cc1OCCCN1CCOCC1 [Foretinib] (partner 0.25 µM)
Procedure, shortened: as §1

[1] = compound: CN[C@@H]1C[C@H]2O[C@@](C)([C@@H]1OC)n1c3ccccc3c3c4c(c5c6ccccc6n2c5c31)C(=O)NC4 [Staurosporine] + Cc1nc(NC(=O)N2CCC[C@H]2C(N)=O)sc1-c1ccnc(C(C)(C)C(F)(F)F)c1 [Alpelisib] (partner 2 µM)
Procedure, shortened: as §1

[2] = compound: O=c1[nH]cc(F)c(=O)[nH]1 [5-Fluorouracil] + CS(=O)(=O)CCNCc1ccc(-c2ccc3ncnc(Nc4ccc(OCc5cccc(F)c5)c(Cl)c4)c3c2)o1 [Lapatinib] (partner 2 µM)
Procedure, shortened: as §1

Cell Line: UMC-11
- relative viability (Sulindac + Navitoclax; first compound 0.08 µM): 0.3
- relative viability (Sulindac + Navitoclax; first compound 0.253 µM): 0.305
- relative viability (Sulindac + Navitoclax; first compound 0.8 µM): 0.309
- relative viability (Sulindac + Navitoclax; first compound 2.53 µM): 0.292
- relative viability (Sulindac + Navitoclax; first compound 8 µM): 0.38
- relative viability (Sulindac + Foretinib; first compound 0.08 µM): 1.33
- relative viability (Sulindac + Foretinib; first compound 0.253 µM): 1.12
- relative viability (Sulindac + Foretinib; first compound 0.8 µM): 0.739
- relative viability (Sulindac + Foretinib; first compound 2.53 µM): 0.986
- relative viability (Sulindac + Foretinib; first compound 8 µM): 1.12
- relative viability ([1]; first compound 0.005 µM): 0.882
- relative viability ([1]; first compound 0.01581 µM): 0.427
- relative viability ([1]; first compound 0.05 µM): 0.461
- relative viability ([1]; first compound 0.1581 µM): 0.145
- relative viability ([1]; first compound 0.5 µM): 0.0643
- relative viability ([2]; first compound 0.02 µM): 0.905
- relative viability ([2]; first compound 0.2 µM): 0.746
- relative viability ([2]; first compound 0.6325 µM): 0.434
- relative viability ([2]; first compound 2 µM): 0.443
